Data: article PMC9230201, “Sustained Consumption of a Decaffeinated Green Coffee Nutraceutical Has Limited Effects on Phenolic Metabolism and Bioavailability in Overweight/Obese Subjects” (Nutrients, 2022)

Assay: Urinary excretion of phenolic metabolites after intake of the GCPE nutraceutical
Settings: for Cumulative urinary excretion, Total 0–24 h / Urinary excretion: urine; for Cumulative urinary excretion, Total 0–24 h: mean ± SEM, n = 9

| Structure (SMILES) | Cumulative urinary excretion, Total 0–24 h (week 0) [µmol] | Cumulative urinary excretion, Total 0–24 h (week 8) [µmol] | Amount excreted in urine, 0- 3 h (week 0, interval 0–3 h) [µmol] | Amount excreted in urine, 3-6 h (week 0, interval 3–6 h) [µmol] | Amount excreted in urine, 6-9 h (week 0, interval 6–9 h) [µmol] | Amount excreted in urine, 9-11 h (week 0, interval 9–11 h) [µmol] | Amount excreted in urine, 0- 3 h (week 8, interval 0–3 h) [µmol] | Amount excreted in urine, 3-6 h (week 8, interval 3–6 h) [µmol] | Amount excreted in urine, 6-9 h (week 8, interval 6–9 h) [µmol] | Amount excreted in urine, 9-11 h (week 8, interval 9–11 h) [µmol] | Urinary excretion (week 0) [µmol/24 h] | Urinary excretion (week 8) [µmol/24 h] | Amount excreted in urine, 11-24 h (week 0, interval 11–24 h) [µmol] | Amount excreted in urine, 11-24 h (week 8, interval 11–24 h) [µmol] |
| --- | --- | --- | --- | --- | --- | --- | --- | --- | --- | --- | --- | --- | --- | --- |
| O=C(/C=C/c1ccc(O)c(O)c1)O[C@@H]1C[C@](O)(C(=O)O)C[C@@H](O)[C@H]1O [3-Caffeoylquinic acid] | 0.21 ± 0.05 | 0.18 ± 0.03 | 0.11 ± 0.02 | 0.08 ± 0.03 | 0.022 ± 0.009 | 0.003 ± 0.002 | 0.1 ± 0.02 | 0.045 ± 0.008 | 0.028 ± 0.007 | 0.008 ± 0.005 |  |  |  |  |
| O=C(CCc1ccc(O)c(O)c1)OC1CC(O)(C(=O)O)CC(O)C1O (stereo not shown) [3-Dihydrocaffeoylquinic acid] | 0.35 ± 0.07 | 0.27 ± 0.08 | 0.06 ± 0.02 | 0.033 ± 0.005 | 0.05 ± 0.02 | 0.04 ± 0.01 | 0.025 ± 0.007 | 0.019 ± 0.005 | 0.04 ± 0.01 | 0.03 ± 0.01 | 0.35 | 0.27 | 0.17 ± 0.04 | 0.15 ± 0.06 |
| COc1cc(CCC(=O)OC2CC(O)(C(=O)O)CC(O)C2O)ccc1O (stereo not shown) [3-Dihydroferuloylquinic acid] | 0.3 ± 0.1 | 0.5 ± 0.07 | 0.05 ± 0.01 | 0.034 ± 0.006 | 0.029 ± 0.006 | 0.019 ± 0.005 | 0.11 ± 0.02 | 0.062 ± 0.008 | 0.08 ± 0.01 | 0.08 ± 0.02 |  |  | 0.16 ± 0.09 | 0.14 ± 0.02 |
| O=C(/C=C/c1ccc(O)c(O)c1)OC1[C@H](O)CC(O)(C(=O)O)C[C@H]1O (stereo partly shown) [4-Caffeoylquinic acid] | 0.13 ± 0.07 | 0.15 ± 0.07 |  |  | 0.03 ± 0.02 | 0.05 ± 0.04 | 0.01 ± 0.01 | 0.008 ± 0.005 | 0.06 ± 0.03 | 0.05 ± 0.03 |  |  | 0.05 ± 0.02 | 0.02 ± 0.01 |
| O=C(CCc1ccc(O)c(O)c1)OC1C(O)CC(O)(C(=O)O)CC1O (stereo not shown) [4-Dihydrocaffeoylquinic acid] | 0.06 ± 0.02 | 0.04 ± 0.02 | 0.011 ± 0.004 | 0.005 ± 0.002 | 0.005 ± 0.002 | 0.006 ± 0.002 | 0.008 ± 0.004 | 0.003 ± 0.002 | 0.004 ± 0.002 | 0.004 ± 0.003 |  |  | 0.036 ± 0.008 | 0.02 ± 0.01 |
| COc1cc(CCC(=O)OC2C(O)CC(O)(C(=O)O)CC2O)ccc1O (stereo not shown) [4-Dihydroferuloylquinic acid] | 0.06 ± 0.02 | 0.05 ± 0.02 | 0.011 ± 0.004 | 0.008 ± 0.003 | 0.013 ± 0.005 | 0.005 ± 0.003 | 0.015 ± 0.008 |  | 0.011 ± 0.007 | 0.003 ± 0.002 |  |  | 0.019 ± 0.009 | 0.009 ± 0.005 |
| O=C(/C=C/c1ccc(O)c(O)c1)O[C@@H]1C[C@@](O)(C(=O)O)C[C@@H](O)[C@@H]1O [5-Caffeoylquinic acid] | 0.33 ± 0.06 | 0.33 ± 0.04 | 0.18 ± 0.04 | 0.12 ± 0.04 | 0.03 ± 0.01 | 0.004 ± 0.002 | 0.18 ± 0.04 | 0.08 ± 0.01 | 0.033 ± 0.008 | 0.009 ± 0.007 |  |  |  | 0.006 ± 0.006 |
| COc1cc(CCC(=O)OC2CC(O)(C(=O)O)CC(O)C2O)ccc1O (stereo not shown) [5-Dihydroferuloylquinic acid] | 0.3 ± 0.1 | 0.18 ± 0.07 | 0.12 ± 0.08 | 0.023 ± 0.004 | 0.027 ± 0.009 | 0.013 ± 0.004 | 0.08 ± 0.04 | 0.021 ± 0.008 | 0.03 ± 0.02 | 0.008 ± 0.003 |  |  | 0.1 ± 0.04 | 0.04 ± 0.02 |
| O=C(O)/C=C/c1ccc(O)c(OS(=O)(=O)O)c1 [CA-3′-sulfate, 4′Hydroxycinnamic acid-3′-sulfate] | 3.7 ± 0.5 | 4.4 ± 0.8 | 1.2 ± 0.3 | 0.7 ± 0.2 | 0.8 ± 0.2 | 0.21 ± 0.06 | 1.2 ± 0.2 | 0.6 ± 0.1 | 0.9 ± 0.3 | 0.7 ± 0.3 |  |  | 0.9 ± 0.2 | 1 ± 0.3 |
| O=C(O)CCc1ccc(O)c(O[C@@H]2O[C@H](C(=O)O)[C@@H](O)[C@H](O)[C@H]2O)c1 [DHCA-3′-glucuronide, 3-(4′-Hydroxyphenyl)propanoic acid-3′-glucuronide] | 0.6 ± 0.2 | 0.5 ± 0.1 | 0.09 ± 0.03 | 0.07 ± 0.02 | 0.08 ± 0.04 | 0.04 ± 0.02 | 0.11 ± 0.04 | 0.06 ± 0.02 | 0.08 ± 0.02 |  |  |  | 0.3 ± 0.09 | 0.2 ± 0.06 |
| O=C(O)CCc1ccc(O)c(OS(=O)(=O)O)c1 [DHCA-3′-sulfate, 3-(4′-Hydroxyphenyl)propanoic acid-3′-sulfate] | 9 ± 2 | 9 ± 3 | 0.32 ± 0.07 | 0.26 ± 0.07 | 2.5 ± 0.9 | 2 ± 0.7 | 0.7 ± 0.2 | 0.6 ± 0.2 | 2.5 ± 0.6 | 3 ± 1 |  |  | 4 ± 1 | 2 ± 1 |
| O=C(O)CCc1ccc(O[C@@H]2O[C@H](C(=O)O)[C@@H](O)[C@H](O)[C@H]2O)cc1 [DHCoA-4′-glucuronide, 3-(Phenyl)propanoic acid-4′-glucuronide] | 2.1 ± 0.3 | 1.9 ± 0.3 | 0.17 ± 0.06 | 0.1 ± 0.03 | 0.26 ± 0.09 | 0.28 ± 0.07 | 0.23 ± 0.09 | 0.16 ± 0.05 | 0.56 ± 0.2 | 0.4 ± 0.1 |  |  | 1.3 ± 0.2 | 1 ± 0.1 |
| O=C(O)CCc1ccc(OS(=O)(=O)O)cc1 [DHCoA-4′-sulfate, 3-(Phenyl)propanoic acid-4′-sulfate] | 21 ± 6 | 21 ± 4 | 0.9 ± 0.4 | 0.7 ± 0.1 | 3 ± 1 | 3 ± 1 | 2 ± 0.8 | 1.5 ± 0.5 | 5 ± 2 | 5 ± 2 |  |  | 12 ± 4 | 7 ± 3 |
| COc1ccc(/C=C/C(=O)NCC(=O)O)cc1O [IsoFeruloylglicine] | 0.44 ± 0.04 | 0.6 ± 0.1 | 0.04 ± 0.01 | 0.035 ± 0.009 | 0.08 ± 0.02 | 0.11 ± 0.01 | 0.13 ± 0.05 | 0.1 ± 0.02 | 0.12 ± 0.04 | 0.06 ± 0.02 |  |  | 0.16 ± 0.03 | 0.17 ± 0.05 |
| COc1ccc(C=CC(=O)O)cc1O[C@@H]1O[C@H](C(=O)O)[C@@H](O)[C@H](O)[C@H]1O [iFA-3′-glucuronide, 4′-Methoxycinnamic acid-3′-glucuronide] | 4.4 ± 0.5 | 6 ± 1 | 0.9 ± 0.2 | 0.8 ± 0.2 | 1.1 ± 0.3 | 0.49 ± 0.09 | 1.4 ± 0.3 | 0.9 ± 0.2 | 1.7 ± 0.3 | 1 ± 0.4 |  |  | 1.1 ± 0.2 | 1.1 ± 0.3 |
| COc1ccc(C=CC(=O)O)cc1OS(=O)(=O)O [iFA-3′-sulfate, 4′-Methoxycinnamic acid-3′-sulfate] | 1.1 ± 0.3 | 2.1 ± 0.9 | 0.4 ± 0.1 | 0.07 ± 0.04 | 0.24 ± 0.08 | 0.09 ± 0.03 | 0.34 ± 0.07 | 0.1 ± 0.03 | 0.32 ± 0.06 | 0.3 ± 0.1 |  |  | 0.4 ± 0.1 | 1 ± 0.7 |
